Assay results: article PMC4104029, “Mechanism of Action of Compound-13: An α1-Selective Small Molecule Activator of AMPK” (Chemistry & Biology, 2014)

Tested on: isolated, full-length AMPKα1 and α2 subunits
Test: Isolated AMPKα subunit activity assay
Type: biochemical, human
Details: C2 0–1000 nM, conditions as Figure 1B
Method: Supplemental Figure Legends:
Figure S1, related to Figures 1-3. Subunit composition of AMPK preparations used in this study. (A) Heterotrimeric AMPK complexes (10 ng) produced in both Sf9 (Sigma and Signalchem) and E.coli (in our laboratory) were analysed by Western blotting using isoform specific antibodies. Note that both the α2/α1-HOOK and α2/α1-LOOP chimeras are no longer recognised by the anti-α2 antibody as the epitope has been replaced (see Fig S4). (B) Heterotrimeric AMPK α2/α1 chimeric complexes expressed in E.coli (2 μg) were separated by SDS-PAGE and stained with Coomassie G-250. Arrows indicate the position of the […]
Figure S2, related to Figure 1. C2 has negligible effects on a panel of 138 protein kinases.
Kinase inhibition screen was performed by the International Centre for Kinase profiling (Dundee). Assays were performed in duplicate using 10 µM C2 and are representative of two independent screens. Results are shown in rank order as mean % activity compared with controls in the absence of compound ± SD. […]
Figure S3, related to Figure 2. […] Results are expressed as mean Pi incorporated in nmol.min-1.mg-1 ± SD. […] Results are expressed as fold increase in activity relative to controls in the absence of compound ± SD.
(E) C2 and AMP displace a GST-AMPKγ2 subunit fusion from ATP-γ-Sepharose. […] The presence of eluted AMPKγ2 was analysed by SDS-PAGE and staining with colloidal Coomassie. […]

O=P(O)(O)c1ccc(-c2cc(O)on2)o1 [Compound C2, 5-(5-hydroxyl-isoxazol-3-yl)-furan-2-phosphonic acid]
effect on activity: no effect
